Laboratory results reported in patent US20180133327A1, “Cell Penetrating Peptides and Complexes Comprising the Same” (Amal Therapeutics SA, priority 2015, published 2018).

What was measured:
[1] = tested on: EG7-OVA tumor cells; assay: Therapeutic effect of ZEBRA CPP truncation-based vaccines in the EG.7-OVA s.c. model; type: in vivo, C57BL/6 mice; conditions: 10 nmol ZxxOVACD8CD4 and 20 μg MPLA s.c. at d5, d13 and d21 after tumor implantation
Protocol: C57BL/6 mice were implanted s.c. with 3×10^5 EG7-OVA tumor cells in the left flank and vaccinated three times (d5, d13 and d21) by s.c. injection of 10nmoles of Z-truncOVACD8CD4 peptides and 20 μg of MPLA in the right flank. Tumor size was measured with a caliper. […] B, D and F: survival curve of 7 mice per group. Median survival is indicated on the graph (m.s.). *, p<0.05; **, p<0.01; ***, p<0.001; ****, p<0.0001 (Log-Rang test).
To investigate the effects of different ZEBRA CPP truncation-based vaccines on tumor growth and survival, the effects of the constructs Z13OVACD8CD4, Z14OVACD8CD4, Z15OVACD8CD4 and Z18OVACD8CD4 (as described in Examples 4 and 6) were investigated in the EG.7-OVA s.c. model. On d0, C57BL/6 mice were implanted s.c. with 3×10^5 EG7-OVA tumor cells in the left flank and assigned to five different groups (control, Z13OVACD8CD4, Z14OVACD8CD4, Z15OVACD8CD4 and Z18OVACD8CD4). Mice were vaccinated three times (namely, at d5, d13 and d21 after tumor implantation) by s.c. injection of either 10 nmol of Z13OVACD8CD4, Z14OVACD8CD4, Z15OVACD8CD4 or Z18OVACD8CD4 and 20μg of MPLA in the right flank. Tumor size was measured with a caliper.

[2] = tested on: IFN-γ-producing OVA257-264-specific CD8 T cells; assay: Vaccination with ZEBRA CPP truncation constructs plus TLR agonist adjuvant, IFN-γ Elispot on spleen cells, CD8; type: in vivo, mice
Protocol: (§1) Mice were vaccinated three times (wk0, wk2 and wk9) by s.c. injection (right flank) of 10 nmoles of OVACD8CD4 (the cargo without Zebra CPP truncation), Z13OVACD8CD4, Z14OVACD8CD4, Z15OVACD8CD4, Z18OVACD8CD4 and i.m. injection of 50 μg of Hiltonol (right hind leg). One week after the last vaccination, Elispot assay was performed on spleen cells for detecting IFN-y-producing OVA257-264-specific CD8 T cells (A) and OVA323-339-specific CD4 T cells (B). *, p<0.05; **, p<0.01.
as §1, with “Z15OVACD8CD4 or” for “Z15OVACD8CD4,”, “20” for “i.m. injection of 50”, “Pam3CSK4.” for “Hiltonol (right hind leg).”, “IFN-γ-producing” for “IFN-y-producing”
Mice were vaccinated three times (wk0, wk2 and wk9) by s.c. injection (right flank) of 10 nmoles of Z13OVACD8CD4, Z15OVACD8CD4 or Z18OVACD8CD4 and 20 μg of MPLA. One week after the last vaccination, Elispot assay was performed on spleen cells for detecting IFN-γ-producing OVA257-264-specific CD8 T cells (A) and OVA323-339-specific CD4 T cells (B). *, p<0.05; **, p<0.01.
To extend the previous findings to in vivo vaccination, Z13, Z14, Z15 and Z18 conjugated to antigenic cargo containing both CD8 and CD4 T cell epitopes from OVA (as described in Example 4 for Z13, Z15 and Z18) was synthesized. For Z14 the construct was as follows:
Firstly, those constructs were tested with Hiltonol adjuvant (a TLR3 agonist). […] The number of peptide-specific IFN-γ-producing cells was calculated by subtracting the number of IFN-γ-secreting cells cultured without peptide to that obtained with cells cultured with peptide. […]

KRYKNRVASRKSRAKFK (CPP Z15) [ZEBRA CPP truncation]
survival time [1]: only slight
tumor volume [1]: only slight
CD8 T cell immune responses, for any adjuvant ([2]; 10 nmol ZxxOVACD8CD4 s.c. wk0, wk2, wk9, Hiltonol, Pam3CSK4 or MPLA): low CD8 T cell immune responses

KRYKNRVASRKSRAKFKQLLQHYREVAAAK [Z14]
survival time [1]: much more pronounced and highly significant
tumor volume [1]: much more pronounced and highly significant

KRYKNRVASRKSRAKFKQLLQHYREVAAAKSSENDRLRLLLK [Z13]
survival time [1]: much more pronounced and highly significant
tumor volume [1]: much more pronounced and highly significant
CD8 immune response, combined with MPLA ([2]; 10 nmol ZxxOVACD8CD4 s.c. wk0, wk2, wk9 and 20 μg MPLA (TLR4 agonist)): most efficacious

REVAAAKSSENDRLRLLLK [Z18]
survival time [1]: only slight
tumor volume [1]: only slight
CD8 immune response, combined with Pam3CSK4 ([2]; 10 nmol ZxxOVACD8CD4 s.c. wk0, wk2, wk9 and 20 μg Pam3CSK4 (TLR2 agonist)): highest CD8 and CD4 immune response
